Earlier results as cited in US20250228918A1, “METHODS OF CONTROLLING BODY WEIGHT AND/OR ENERGY EXPENDITURE” (Yale University, priority 2022, published 2025).

Conditions: in vivo

Structure (SMILES): C[C@H]1Oc2cc(cnc2N)-c2c(nn(C)c2C#N)CN(C)C(=O)c2ccc(F)cc21 [Lorlatinib]
- brain penetration: penetrates well into brain
